The results in this text go back to ChEMBL document CHEMBL5291721, “A preclinical secondary pharmacology resource illuminates target-adverse drug reaction associations of marketed drugs” (Nat Commun, 2023).

Some results are limits rather than exact numbers.

Test [1] addresses 5-hydroxytryptamine receptor 2B (Homo sapiens, UniProt P41595). It is filed as functional, cell-based.
For test [2], the target named is Gamma-aminobutyric acid receptor subunit alpha-1 (Rattus norvegicus, UniProt P62813).
Test [3] addresses D(3) dopamine receptor (Homo sapiens, UniProt P35462).
Test [4] has as its target Vascular endothelial growth factor receptor 2 (Homo sapiens, UniProt P35968). It is filed as functional.
Test [5] concerns the target T1, Adenosine receptor A3 (Homo sapiens, UniProt P0DMS8).
T1 sequence (P0DMS8 whole entry): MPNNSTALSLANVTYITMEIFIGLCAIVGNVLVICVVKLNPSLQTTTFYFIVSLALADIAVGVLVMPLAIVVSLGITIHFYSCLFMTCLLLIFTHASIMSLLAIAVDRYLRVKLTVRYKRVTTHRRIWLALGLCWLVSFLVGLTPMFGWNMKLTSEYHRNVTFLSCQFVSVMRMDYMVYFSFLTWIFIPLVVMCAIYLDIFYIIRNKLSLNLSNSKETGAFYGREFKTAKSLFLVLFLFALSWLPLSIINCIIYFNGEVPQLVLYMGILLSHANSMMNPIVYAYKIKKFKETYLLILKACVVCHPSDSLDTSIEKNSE

For test [6], the target named is Gamma-aminobutyric acid receptor subunit alpha-1/alpha-2/beta-2/gamma-2 (Homo sapiens, UniProt P14867+P18507+P47869+P47870). It is filed as protein-complex assay.
Test [7] deals with T2, 5-hydroxytryptamine receptor 1A (Homo sapiens, UniProt P08908).
T2 sequence (P08908 whole entry): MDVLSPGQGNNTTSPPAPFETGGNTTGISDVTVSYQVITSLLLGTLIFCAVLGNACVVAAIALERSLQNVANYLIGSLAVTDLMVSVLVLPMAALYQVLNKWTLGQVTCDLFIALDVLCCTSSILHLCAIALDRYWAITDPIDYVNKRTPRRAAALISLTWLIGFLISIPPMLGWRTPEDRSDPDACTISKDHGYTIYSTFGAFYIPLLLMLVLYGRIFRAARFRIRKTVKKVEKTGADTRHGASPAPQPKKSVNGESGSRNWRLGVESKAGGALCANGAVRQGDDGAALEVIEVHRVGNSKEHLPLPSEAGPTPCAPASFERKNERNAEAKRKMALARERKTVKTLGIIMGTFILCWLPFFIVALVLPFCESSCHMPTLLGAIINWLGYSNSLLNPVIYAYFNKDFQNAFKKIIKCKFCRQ
Further: assay procedure not described here.

Chain of Vascular endothelial growth factor receptor 2 (P35968 whole entry): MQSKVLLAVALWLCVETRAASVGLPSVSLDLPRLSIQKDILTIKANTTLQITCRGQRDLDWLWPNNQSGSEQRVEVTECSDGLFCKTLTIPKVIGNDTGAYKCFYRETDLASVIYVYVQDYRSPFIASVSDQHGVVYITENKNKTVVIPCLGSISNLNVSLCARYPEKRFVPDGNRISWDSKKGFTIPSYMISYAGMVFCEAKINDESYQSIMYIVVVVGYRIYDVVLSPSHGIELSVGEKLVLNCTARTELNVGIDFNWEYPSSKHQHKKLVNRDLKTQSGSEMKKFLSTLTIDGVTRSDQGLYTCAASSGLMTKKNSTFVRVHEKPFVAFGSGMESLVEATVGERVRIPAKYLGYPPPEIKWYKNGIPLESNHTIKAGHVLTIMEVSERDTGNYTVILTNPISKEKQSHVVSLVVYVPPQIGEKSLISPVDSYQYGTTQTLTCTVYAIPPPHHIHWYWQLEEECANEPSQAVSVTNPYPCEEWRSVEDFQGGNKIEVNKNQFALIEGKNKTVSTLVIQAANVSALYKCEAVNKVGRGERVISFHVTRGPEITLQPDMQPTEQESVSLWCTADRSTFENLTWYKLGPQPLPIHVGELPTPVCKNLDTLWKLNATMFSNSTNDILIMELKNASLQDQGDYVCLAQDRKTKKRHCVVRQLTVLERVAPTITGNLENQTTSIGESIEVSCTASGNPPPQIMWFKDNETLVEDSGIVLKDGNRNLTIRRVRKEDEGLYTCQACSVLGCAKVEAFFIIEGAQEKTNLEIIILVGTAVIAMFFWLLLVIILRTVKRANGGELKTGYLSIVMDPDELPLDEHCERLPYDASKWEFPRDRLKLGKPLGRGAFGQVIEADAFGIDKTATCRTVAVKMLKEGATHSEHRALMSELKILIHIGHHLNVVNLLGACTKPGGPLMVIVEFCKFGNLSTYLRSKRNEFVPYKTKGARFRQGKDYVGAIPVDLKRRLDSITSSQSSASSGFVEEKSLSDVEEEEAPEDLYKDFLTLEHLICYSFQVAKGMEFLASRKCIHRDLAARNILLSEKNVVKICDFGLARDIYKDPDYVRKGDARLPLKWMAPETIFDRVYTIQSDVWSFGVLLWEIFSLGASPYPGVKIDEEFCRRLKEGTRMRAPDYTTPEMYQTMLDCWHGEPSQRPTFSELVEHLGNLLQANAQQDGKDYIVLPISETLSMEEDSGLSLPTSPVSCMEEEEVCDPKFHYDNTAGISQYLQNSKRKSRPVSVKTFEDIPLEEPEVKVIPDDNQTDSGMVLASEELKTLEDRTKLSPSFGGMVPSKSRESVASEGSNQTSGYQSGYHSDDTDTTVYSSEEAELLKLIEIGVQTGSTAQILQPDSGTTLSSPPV
Chain of Gamma-aminobutyric acid receptor subunit alpha-1/alpha-2/beta-2/gamma-2 (P14867 whole entry): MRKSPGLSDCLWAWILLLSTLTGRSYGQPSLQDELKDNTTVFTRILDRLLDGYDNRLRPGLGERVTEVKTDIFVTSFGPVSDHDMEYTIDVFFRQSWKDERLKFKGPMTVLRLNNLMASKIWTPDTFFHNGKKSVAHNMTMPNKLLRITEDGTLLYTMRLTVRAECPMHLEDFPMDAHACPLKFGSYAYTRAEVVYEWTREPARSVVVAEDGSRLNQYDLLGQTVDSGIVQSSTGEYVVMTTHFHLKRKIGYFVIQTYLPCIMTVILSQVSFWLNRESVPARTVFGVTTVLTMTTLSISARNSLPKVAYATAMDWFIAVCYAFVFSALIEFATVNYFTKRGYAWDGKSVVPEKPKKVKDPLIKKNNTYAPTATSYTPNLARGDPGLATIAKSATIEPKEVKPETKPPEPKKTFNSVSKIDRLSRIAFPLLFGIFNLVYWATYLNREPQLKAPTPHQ
Chain of Gamma-aminobutyric acid receptor subunit alpha-1/alpha-2/beta-2/gamma-2 (P47870 whole entry): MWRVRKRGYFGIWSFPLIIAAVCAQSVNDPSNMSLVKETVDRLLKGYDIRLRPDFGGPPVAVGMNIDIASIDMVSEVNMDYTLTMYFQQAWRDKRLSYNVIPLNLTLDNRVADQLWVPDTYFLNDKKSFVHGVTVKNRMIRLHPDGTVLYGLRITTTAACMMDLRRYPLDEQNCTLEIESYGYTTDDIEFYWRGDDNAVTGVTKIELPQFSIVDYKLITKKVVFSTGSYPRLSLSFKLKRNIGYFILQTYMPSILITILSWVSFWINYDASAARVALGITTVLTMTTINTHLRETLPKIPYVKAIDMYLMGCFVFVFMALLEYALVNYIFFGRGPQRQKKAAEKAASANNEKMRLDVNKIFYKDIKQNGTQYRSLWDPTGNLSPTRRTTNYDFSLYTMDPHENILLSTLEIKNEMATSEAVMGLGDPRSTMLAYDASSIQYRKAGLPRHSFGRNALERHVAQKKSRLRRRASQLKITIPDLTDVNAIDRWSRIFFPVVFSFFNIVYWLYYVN
Chain of Gamma-aminobutyric acid receptor subunit alpha-1/alpha-2/beta-2/gamma-2 (P18507 whole entry): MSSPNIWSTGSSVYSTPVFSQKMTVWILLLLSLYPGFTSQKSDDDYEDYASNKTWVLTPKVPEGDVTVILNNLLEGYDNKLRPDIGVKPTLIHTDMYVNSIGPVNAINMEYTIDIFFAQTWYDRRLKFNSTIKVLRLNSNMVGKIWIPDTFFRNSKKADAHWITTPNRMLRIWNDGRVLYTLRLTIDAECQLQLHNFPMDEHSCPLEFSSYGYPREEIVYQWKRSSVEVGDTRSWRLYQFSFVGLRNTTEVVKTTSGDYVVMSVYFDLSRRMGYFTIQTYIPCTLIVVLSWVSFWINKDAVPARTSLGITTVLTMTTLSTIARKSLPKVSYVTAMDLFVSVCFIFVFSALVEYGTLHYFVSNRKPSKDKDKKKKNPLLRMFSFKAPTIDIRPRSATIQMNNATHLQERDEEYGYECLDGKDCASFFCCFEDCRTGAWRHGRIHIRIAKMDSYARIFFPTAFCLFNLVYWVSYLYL
Chain of Gamma-aminobutyric acid receptor subunit alpha-1/alpha-2/beta-2/gamma-2 (P47869 whole entry): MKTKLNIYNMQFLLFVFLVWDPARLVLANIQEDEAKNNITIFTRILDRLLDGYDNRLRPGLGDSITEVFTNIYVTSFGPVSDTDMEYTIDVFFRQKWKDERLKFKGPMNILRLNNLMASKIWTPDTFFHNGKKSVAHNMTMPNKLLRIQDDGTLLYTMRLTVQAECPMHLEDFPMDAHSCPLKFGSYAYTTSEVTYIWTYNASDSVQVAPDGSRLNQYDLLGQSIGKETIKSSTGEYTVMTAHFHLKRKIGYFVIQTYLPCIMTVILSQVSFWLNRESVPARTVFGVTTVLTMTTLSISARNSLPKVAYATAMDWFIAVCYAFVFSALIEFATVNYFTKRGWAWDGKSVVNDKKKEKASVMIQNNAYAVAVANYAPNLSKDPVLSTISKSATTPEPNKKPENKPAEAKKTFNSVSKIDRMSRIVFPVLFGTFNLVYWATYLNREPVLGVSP
Chain of 5-hydroxytryptamine receptor 2B (P41595 whole entry): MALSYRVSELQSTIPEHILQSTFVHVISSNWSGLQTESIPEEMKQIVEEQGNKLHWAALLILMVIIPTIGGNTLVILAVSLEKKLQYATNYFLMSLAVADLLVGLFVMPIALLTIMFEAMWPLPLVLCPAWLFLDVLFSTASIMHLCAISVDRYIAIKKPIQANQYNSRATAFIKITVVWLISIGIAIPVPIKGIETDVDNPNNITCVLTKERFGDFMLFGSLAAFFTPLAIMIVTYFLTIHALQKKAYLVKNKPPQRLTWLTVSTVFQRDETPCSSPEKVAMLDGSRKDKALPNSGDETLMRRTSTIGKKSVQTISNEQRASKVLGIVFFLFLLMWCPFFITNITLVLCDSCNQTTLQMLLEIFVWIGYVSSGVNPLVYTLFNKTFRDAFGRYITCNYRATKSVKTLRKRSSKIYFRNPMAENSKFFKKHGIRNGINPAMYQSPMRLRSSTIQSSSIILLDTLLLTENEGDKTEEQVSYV
Chain of Gamma-aminobutyric acid receptor subunit alpha-1 (P62813 whole entry): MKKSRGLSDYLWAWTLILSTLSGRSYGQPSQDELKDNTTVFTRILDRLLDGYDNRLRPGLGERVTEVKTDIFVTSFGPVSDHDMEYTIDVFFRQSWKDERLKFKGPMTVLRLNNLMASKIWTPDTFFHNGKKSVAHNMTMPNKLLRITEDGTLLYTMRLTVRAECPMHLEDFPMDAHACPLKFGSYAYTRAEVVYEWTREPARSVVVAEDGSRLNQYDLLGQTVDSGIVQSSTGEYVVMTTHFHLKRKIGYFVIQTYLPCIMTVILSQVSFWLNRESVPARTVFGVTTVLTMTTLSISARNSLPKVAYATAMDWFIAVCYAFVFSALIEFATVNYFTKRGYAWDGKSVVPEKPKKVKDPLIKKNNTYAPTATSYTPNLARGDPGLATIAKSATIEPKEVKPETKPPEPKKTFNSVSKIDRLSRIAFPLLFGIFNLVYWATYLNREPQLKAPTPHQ
Chain of D(3) dopamine receptor (P35462 whole entry): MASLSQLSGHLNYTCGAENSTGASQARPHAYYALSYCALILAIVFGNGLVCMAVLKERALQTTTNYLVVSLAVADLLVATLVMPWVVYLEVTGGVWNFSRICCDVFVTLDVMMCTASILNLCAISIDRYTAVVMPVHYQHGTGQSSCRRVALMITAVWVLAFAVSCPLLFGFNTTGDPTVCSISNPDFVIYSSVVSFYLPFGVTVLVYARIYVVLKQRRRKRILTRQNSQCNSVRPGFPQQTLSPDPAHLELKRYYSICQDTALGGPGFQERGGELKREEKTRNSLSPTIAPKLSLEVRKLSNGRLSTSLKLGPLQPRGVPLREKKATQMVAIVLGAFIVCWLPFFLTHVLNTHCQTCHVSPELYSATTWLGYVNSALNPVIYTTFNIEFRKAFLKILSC

With `C1CNCCN1` [PIPERAZINE], the AC50 was more than 30 µM in test [1]; more than 30 µM in test [2]; more than 30 µM in test [3]; 23.3 µM in test [4]; more than 30 µM in test [5]; more than 30 µM in test [6]. For the same molecule, the AC50 in test [7] was more than 30 µM.

`O=C(Oc1ccccc1C(=O)O)c1ccccc1O` [SALSALATE]: the AC50 in test [1], in test [2], in test [3], in test [4], in test [5] and in test [6] was more than 30 µM throughout. For the same molecule, in test [7], the AC50 was more than 30 µM.

In general, AC50 refers to the concentration giving half of the maximal activity seen. Higher therefore signals activity only at high concentration.
